Reference: patent US4622386A, “[1,7-di-alanine]calcitonin” (Armour Pharmaceutical Company, priority 1985, dated 1986)

Columns and labels:
[1] = tested on: serum calcium concentration; conditions: standard used in the rat serum calcium assay; cited from earlier work
[2] = tested on: serum calcium concentration; assay: Biological assay of calcitonin analogs in vivo: reduction of serum calcium concentration, 2×2 parallel line assay; conditions: rats, subcutaneous injection, blood withdrawn 1 hour later
Method: Biological Assay Of Calcitonin Analogs In Vivo
The biological potency of [Di-Ala^1,7 ]salmon calcitonin was determined by comparing the reduction of serum calcium concentration which followed administration by graded doses of [Di-Ala^1,7 ]SCT and synthetic salmon calcitonin standard. Rats were divided into four groups of seven animals, and each group was assigned at random to a dose of standard or test solution. Low and high doses were chosen from the linear portion of the dose-responsive curve. For the salmon calcitonin standard, the values were 0.7 and 2.1 mcg. peptide/100 g. body weight (BW). This dose approximates 3 and 9 MU/100 g. BW. Peptides were given by subcutaneous injection (0.2 ml/100 g. BW) and blood was withdrawn 1 hour later for serum calcium determination. Sera are processed and analyzed within two hours of collection. […]. Results were analyzed by a 2×2 parallel line assay [Gaddum, J. H., J. Pharm. Pharmacol., 6, 345 (1953)]. The standard salmon calcitonin used was independently determined to contain greater than 4,000 IU/mg. [Di-Ala^1,7 ]SCT assayed at 5550 IU/mg.

| Substance | potency of the standard salmon calcitonin, independently determined [1] | biological potency (reduction of serum calcium concentration vs synthetic salmon calcitonin standard) [2] [IU/mg] |
| --- | --- | --- |
| Salmon calcitonin [standard salmon calcitonin] | greater than 4,000 IU/mg |  |
| [1,7-Di-Alanine)]salmon calcitonin [[Di-Ala^1,7]SCT] |  | 5550 |
